Laboratory results published in the NIST ThermoML archive (doi:10.1021/je100830b).
± gives the expanded uncertainty stated by the source.

Conditions: 298.15 K; 101.33 kPa; Liquid; Vibrating tube method

SMILES	mass density [kg/m3]
CCCCn1cc[n+](C)c1.COS(=O)(=O)[O-] [1-butyl-3-methylimidazolium methyl sulfate]	1208 ± 2.8
C[N+](=O)[O-] [nitromethane]	1130.9 ± 0.4
CCO [ethanol]	786.4 ± 0.2

Other lines, results leading:

mass density [kg/m3]	SMILES
786.3 ± 0.2	CO [methanol]
797.6 ± 0.2	CCCO [propan-1-ol]
